≈ marks a conversion by molar mass, not a printed value.
Legend:
[1] = biological target: T1, Group 10 secretory phospholipase A2 (Homo sapiens, UniProt O15496); test: Inhibition of sPLA2-10 (unknown origin) using 1-palmitoyl-2-oleoyl-sn-glycero-3-phosphocholine as substrate pretreated for 20 mins followed by substrate addition and measured after 60 mins by NEFA based assay
T1 sequence (O15496 whole entry): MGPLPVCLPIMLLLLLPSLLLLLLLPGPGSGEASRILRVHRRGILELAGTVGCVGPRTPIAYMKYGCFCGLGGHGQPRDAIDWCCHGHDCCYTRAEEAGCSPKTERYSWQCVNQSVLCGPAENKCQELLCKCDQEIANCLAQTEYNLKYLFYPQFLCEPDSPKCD

[2] = biological target: T2, Phospholipase A2, membrane associated (Homo sapiens, UniProt P14555); test: Inhibition of sPLA2-2A (unknown origin) using 1-palmitoyl-2-oleoyl-sn-glycero-3-phosphocholine as substrate pretreated for 20 mins followed by substrate addition and measured after 60 mins by NEFA based assay
T2 sequence (P14555 whole entry): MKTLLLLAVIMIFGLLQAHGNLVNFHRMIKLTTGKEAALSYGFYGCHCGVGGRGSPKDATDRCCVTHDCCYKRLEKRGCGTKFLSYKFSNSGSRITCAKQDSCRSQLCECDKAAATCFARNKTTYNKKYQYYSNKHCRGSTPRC

[3] = biological target: T3, Phospholipase A2 group V (Homo sapiens, UniProt P39877); test: Inhibition of sPLA2-5 (unknown origin) using 1-palmitoyl-2-oleoyl-sn-glycero-3-phosphocholine as substrate pretreated for 20 mins followed by substrate addition and measured after 60 mins by NEFA based assay
T3 sequence (P39877 whole entry): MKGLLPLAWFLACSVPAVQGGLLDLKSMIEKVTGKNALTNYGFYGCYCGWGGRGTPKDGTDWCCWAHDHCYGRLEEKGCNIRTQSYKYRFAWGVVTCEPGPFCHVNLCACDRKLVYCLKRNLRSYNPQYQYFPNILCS

[4] = biological target: T1, Group 10 secretory phospholipase A2; test: Inhibition of recombinant human sPLA2-10 using human HDL as substrate pretreated for 20 mins followed by substrate addition and measured after 60 mins by NEFA based assay
[5] = Lipophilicity, log D of compound at pH 7.4; conditions: buffer
[6] = tested on: Mus musculus; test: Unbound clearance in C57Bl/6J mouse administered iv or po; assay type: ADME, organism-based; conditions: in vivo
[7] = biological target: Group 10 secretory phospholipase A2 (Mus musculus, UniProt Q9QXX3); test: Inhibition of mouse sPLA2-10
[8] = Solubility of the compound in DMSO/HBSS solution at pH 7.4 after 24 hrs by LC-UV/MS analysis; assay type: physicochemical
[9] = Apparent permeability in human Caco2 cells; assay type: ADME, cell-based; conditions: Caco-2
[10] = biological target: Voltage-gated inwardly rectifying potassium channel KCNH2 (Homo sapiens, UniProt Q12809); test: Inhibition of human ERG expressed in CHO cells by ionworks patch clamp assay; assay type: cell-based
[11] = Half life in human hepatocytes; assay type: ADME, cell-based, Hepatocyte
[12] = biological target: Sodium channel protein type 5 subunit alpha (Homo sapiens, UniProt Q14524); test: Inhibition of human Nav1.5 expressed in CHO cells by ionworks patch clamp assay; assay type: cell-based
[13] = Inhibition of human Iks expressed in CHO cells by ionworks patch clamp assay; assay type: cell-based
[14] = biological target: A-type voltage-gated potassium channel KCND3 (Homo sapiens, UniProt Q9UK17); test: Inhibition of human Kv4.3 expressed in CHO cells by ionworks patch clamp assay; assay type: cell-based
[15] = biological target: Voltage-dependent T-type calcium channel subunit alpha-1H (Homo sapiens, UniProt O95180); test: Inhibition of human Cav3.2 expressed in CHO cells by ionworks patch clamp assay; assay type: cell-based
[16] = biological target: Voltage-dependent L-type calcium channel subunit alpha-1C (Homo sapiens, UniProt Q13936); test: Inhibition of human Cav1.2 expressed in CHO cells by ionworks patch clamp assay; assay type: cell-based
[17] = Drug metabolism in human liver microsomes in presence of glutathione after 30 mins; assay type: ADME, microsome; conditions: 0.5 h
[18] = biological target: Cytochrome P450 3A4 (Homo sapiens, UniProt P08684); test: Inhibition of recombinant human CYP3A4; assay type: ADME
[19] = biological target: Cytochrome P450 2C9 (Homo sapiens, UniProt P11712); test: Inhibition of recombinant human CYP2C9; assay type: ADME
[20] = biological target: Cytochrome P450 2C19 (Homo sapiens, UniProt P33261); test: Inhibition of recombinant human CYP2C19; assay type: ADME
[21] = biological target: Cytochrome P450 2D6 (Homo sapiens, UniProt P10635); test: Inhibition of recombinant human CYP2D6; assay type: ADME
[22] = biological target: Cytochrome P450 1A2 (Homo sapiens, UniProt P05177); test: Inhibition of recombinant human CYP1A2; assay type: ADME
[23] = biological target: Cytochrome P450 2C8 (Homo sapiens, UniProt P10632); test: Inhibition of recombinant human CYP2C8; assay type: ADME
[24] = Fraction unbound in C57Bl/6J mouse plasma; assay type: ADME, cell-free
[25] = tested on: Mus musculus; test: Unbound clearance in C57Bl/6J mouse at 10 umol/kg, iv or 50 umol/kg, po; assay type: ADME, organism-based; conditions: in vivo
[26] = Oral bioavailability in C57Bl/6J mouse at 50 umol/kg; assay type: ADME, organism-based; conditions: in vivo
[27] = Volume of distribution at steady state in C57Bl/6J mouse at 10 umol/kg, iv or 50 umol/kg, po; assay type: ADME, organism-based; conditions: in vivo, read-out: Vdss
[28] = tested on: Mus musculus; test: Toxicity in ApoE knockout pro-atherogenic western diet-induced Tac mouse carotid artery ligation model of atherosclerosis assessed as reduction in body weight at 75 to 150 umol/kg/day mixed with food measured for 3 weeks; assay type: organism-based; conditions: in vivo, po, 504 h
[29] = tested on: Mus musculus; test: Toxicity in ApoE knockout pro-atherogenic western diet-induced Tac mouse carotid artery ligation model of atherosclerosis assessed as effect on liver enzyme levels at 75 to 150 umol/kg/day mixed with food measured for 3 weeks; assay type: organism-based; conditions: in vivo, po, 504 h
[30] = tested on: Mus musculus; test: Toxicity in ApoE knockout pro-atherogenic western diet-induced Tac mouse carotid artery ligation model of atherosclerosis assessed as histopathological changes in liver at 75 to 150 umol/kg/day mixed with food measured for 3 weeks by hematoxylin-eosin staining based assay; assay type: organism-based; conditions: in vivo, po, 504 h
[31] = tested on: Mus musculus; test: Toxicity in ApoE knockout pro-atherogenic western diet-induced Tac mouse carotid artery ligation model of atherosclerosis assessed as histopathological changes in kidney at 75 to 150 umol/kg/day mixed with food measured for 3 weeks by hematoxylin-eosin staining based assay; assay type: organism-based; conditions: in vivo, po, 504 h
[32] = tested on: Mus musculus; test: Toxicity in ApoE knockout pro-atherogenic western diet-induced Tac mouse carotid artery ligation model of atherosclerosis assessed as histopathological changes in heart at 75 to 150 umol/kg/day mixed with food measured for 3 weeks by hematoxylin-eosin staining based assay; assay type: organism-based; conditions: in vivo, po, 504 h
[33] = tested on: Mus musculus; test: Toxicity in ApoE knockout pro-atherogenic western diet-induced Tac mouse carotid artery ligation model of atherosclerosis assessed as histopathological changes in intestine at 75 to 150 umol/kg/day mixed with food measured for 3 weeks by hematoxylin-eosin staining based assay; assay type: organism-based; conditions: in vivo, po, 504 h
[34] = tested on: Mus musculus; test: Toxicity in ApoE knockout pro-atherogenic western diet-induced Tac mouse carotid artery ligation model of atherosclerosis assessed as histopathological changes in lung at 75 to 150 umol/kg/day mixed with food measured for 3 weeks by hematoxylin-eosin staining based assay; assay type: organism-based; conditions: in vivo, po, 504 h
[35] = tested on: Mus musculus; test: Toxicity in ApoE knockout pro-atherogenic western diet-induced Tac mouse carotid artery ligation model of atherosclerosis assessed as histopathological changes in stomach at 75 to 150 umol/kg/day mixed with food measured for 3 weeks by hematoxylin-eosin staining based assay; assay type: organism-based; conditions: in vivo, po, 504 h
[36] = tested on: Mus musculus; test: Toxicity in ApoE knockout pro-atherogenic western diet-induced Tac mouse carotid artery ligation model of atherosclerosis assessed as histopathological changes in duodenum at 75 to 150 umol/kg/day mixed with food measured for 3 weeks by hematoxylin-eosin staining based assay; assay type: organism-based; conditions: in vivo, po, 504 h
[37] = tested on: Mus musculus; test: Toxicity in ApoE knockout pro-atherogenic western diet-induced Tac mouse carotid artery ligation model of atherosclerosis assessed as histopathological changes in ceacum at 75 to 150 umol/kg/day mixed with food measured for 3 weeks by hematoxylin-eosin staining based assay; assay type: organism-based; conditions: in vivo, po, 504 h
[38] = Ratio of free drug level in ApoE knockout pro-atherogenic western diet-induced Tac mouse at 75 umol/kg measured after 3 weeks to IC50 for recombinant human sPLA2-10 using human HDL as substrate; assay type: ADME; conditions: in vivo, 504 h
[39] = Ratio of free drug level in ApoE knockout pro-atherogenic western diet-induced Tac mouse at 75 umol/kg measured after 1 week to IC50 for recombinant human sPLA2-10 using human HDL as substrate; assay type: ADME; conditions: in vivo, 168 h
[40] = Ratio of free drug level in ApoE knockout pro-atherogenic western diet-induced Tac mouse at 150 umol/kg measured after 1 week to IC90 for recombinant human sPLA2-10 using human HDL as substrate; assay type: ADME; conditions: in vivo, 168 h
[41] = Ratio of free drug level in ApoE knockout pro-atherogenic western diet-induced Tac mouse at 150 umol/kg measured after 3 weeks to IC90 for recombinant human sPLA2-10 using human HDL as substrate; assay type: ADME; conditions: in vivo, 504 h

Sequence of Voltage-gated inwardly rectifying potassium channel KCNH2 (Q12809 whole entry): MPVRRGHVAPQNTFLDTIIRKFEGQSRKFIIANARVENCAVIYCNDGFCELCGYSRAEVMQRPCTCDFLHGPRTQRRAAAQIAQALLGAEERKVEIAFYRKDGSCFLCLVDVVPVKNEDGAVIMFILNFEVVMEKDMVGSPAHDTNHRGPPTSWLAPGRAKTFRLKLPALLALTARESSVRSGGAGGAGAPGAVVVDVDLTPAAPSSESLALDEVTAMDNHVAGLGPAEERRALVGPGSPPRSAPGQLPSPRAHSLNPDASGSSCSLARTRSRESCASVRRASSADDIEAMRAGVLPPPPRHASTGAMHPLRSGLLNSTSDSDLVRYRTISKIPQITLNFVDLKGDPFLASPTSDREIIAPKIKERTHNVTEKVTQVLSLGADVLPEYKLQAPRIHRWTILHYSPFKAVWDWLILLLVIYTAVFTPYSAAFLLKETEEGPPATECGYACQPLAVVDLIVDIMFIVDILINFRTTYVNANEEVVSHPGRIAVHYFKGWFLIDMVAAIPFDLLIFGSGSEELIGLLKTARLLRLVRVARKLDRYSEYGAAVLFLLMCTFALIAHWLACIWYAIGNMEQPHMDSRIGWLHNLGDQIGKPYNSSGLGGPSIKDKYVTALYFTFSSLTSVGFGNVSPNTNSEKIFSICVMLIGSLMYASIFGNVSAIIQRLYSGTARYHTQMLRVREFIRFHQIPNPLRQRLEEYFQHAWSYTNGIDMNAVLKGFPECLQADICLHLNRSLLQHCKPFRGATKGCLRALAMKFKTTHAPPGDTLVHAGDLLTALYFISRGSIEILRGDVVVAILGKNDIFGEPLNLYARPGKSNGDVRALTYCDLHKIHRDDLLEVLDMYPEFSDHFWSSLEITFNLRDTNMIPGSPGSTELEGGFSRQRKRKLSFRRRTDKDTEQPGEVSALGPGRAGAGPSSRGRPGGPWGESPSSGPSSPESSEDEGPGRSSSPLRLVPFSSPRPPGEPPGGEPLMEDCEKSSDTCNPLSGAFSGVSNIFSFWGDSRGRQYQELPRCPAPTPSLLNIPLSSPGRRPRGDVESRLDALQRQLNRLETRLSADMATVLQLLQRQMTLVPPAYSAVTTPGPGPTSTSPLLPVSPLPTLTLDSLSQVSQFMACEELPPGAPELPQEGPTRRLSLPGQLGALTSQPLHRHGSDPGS
Sequence of Cytochrome P450 1A2 (P05177 whole entry): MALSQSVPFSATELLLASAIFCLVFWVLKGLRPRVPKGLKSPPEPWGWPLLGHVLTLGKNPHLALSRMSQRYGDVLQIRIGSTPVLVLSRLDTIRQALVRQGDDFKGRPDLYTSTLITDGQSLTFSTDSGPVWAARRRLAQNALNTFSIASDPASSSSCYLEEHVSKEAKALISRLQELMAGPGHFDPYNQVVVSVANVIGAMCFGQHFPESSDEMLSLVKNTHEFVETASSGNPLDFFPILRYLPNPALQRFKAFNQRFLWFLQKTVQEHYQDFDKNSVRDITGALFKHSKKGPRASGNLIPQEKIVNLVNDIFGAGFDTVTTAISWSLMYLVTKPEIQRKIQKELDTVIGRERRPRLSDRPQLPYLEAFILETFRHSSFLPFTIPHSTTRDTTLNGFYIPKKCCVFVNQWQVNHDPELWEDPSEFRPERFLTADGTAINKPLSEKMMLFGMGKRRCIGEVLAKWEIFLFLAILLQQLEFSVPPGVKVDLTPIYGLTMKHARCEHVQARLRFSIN
Sequence of Cytochrome P450 2C19 (P33261 whole entry): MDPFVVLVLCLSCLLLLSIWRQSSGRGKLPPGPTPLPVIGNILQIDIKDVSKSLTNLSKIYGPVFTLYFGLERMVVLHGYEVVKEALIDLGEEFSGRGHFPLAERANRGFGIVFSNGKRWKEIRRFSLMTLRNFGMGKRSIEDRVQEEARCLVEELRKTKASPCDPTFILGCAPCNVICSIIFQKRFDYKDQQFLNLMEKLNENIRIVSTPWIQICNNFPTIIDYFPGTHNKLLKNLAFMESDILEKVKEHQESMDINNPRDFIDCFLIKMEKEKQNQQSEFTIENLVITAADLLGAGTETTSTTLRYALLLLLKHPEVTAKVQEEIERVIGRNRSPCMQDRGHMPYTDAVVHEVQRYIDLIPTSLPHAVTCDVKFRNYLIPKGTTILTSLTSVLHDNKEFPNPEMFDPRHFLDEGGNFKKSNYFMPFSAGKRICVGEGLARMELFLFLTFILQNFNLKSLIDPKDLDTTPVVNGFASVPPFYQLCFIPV
Sequence of Cytochrome P450 2C9 (P11712 whole entry): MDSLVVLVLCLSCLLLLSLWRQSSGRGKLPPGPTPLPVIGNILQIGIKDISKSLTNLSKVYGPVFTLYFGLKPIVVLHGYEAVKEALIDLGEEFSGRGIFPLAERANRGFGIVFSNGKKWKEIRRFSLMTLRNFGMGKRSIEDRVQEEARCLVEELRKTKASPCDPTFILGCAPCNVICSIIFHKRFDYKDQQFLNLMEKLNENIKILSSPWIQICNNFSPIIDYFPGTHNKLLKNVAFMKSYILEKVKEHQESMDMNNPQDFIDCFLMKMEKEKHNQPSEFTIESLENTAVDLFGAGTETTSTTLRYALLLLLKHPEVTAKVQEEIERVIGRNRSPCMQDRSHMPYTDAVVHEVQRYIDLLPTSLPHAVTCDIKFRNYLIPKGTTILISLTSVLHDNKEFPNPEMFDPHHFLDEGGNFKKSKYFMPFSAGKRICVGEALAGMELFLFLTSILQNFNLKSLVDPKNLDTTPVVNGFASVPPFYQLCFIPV
Sequence of Voltage-dependent T-type calcium channel subunit alpha-1H (O95180 whole entry): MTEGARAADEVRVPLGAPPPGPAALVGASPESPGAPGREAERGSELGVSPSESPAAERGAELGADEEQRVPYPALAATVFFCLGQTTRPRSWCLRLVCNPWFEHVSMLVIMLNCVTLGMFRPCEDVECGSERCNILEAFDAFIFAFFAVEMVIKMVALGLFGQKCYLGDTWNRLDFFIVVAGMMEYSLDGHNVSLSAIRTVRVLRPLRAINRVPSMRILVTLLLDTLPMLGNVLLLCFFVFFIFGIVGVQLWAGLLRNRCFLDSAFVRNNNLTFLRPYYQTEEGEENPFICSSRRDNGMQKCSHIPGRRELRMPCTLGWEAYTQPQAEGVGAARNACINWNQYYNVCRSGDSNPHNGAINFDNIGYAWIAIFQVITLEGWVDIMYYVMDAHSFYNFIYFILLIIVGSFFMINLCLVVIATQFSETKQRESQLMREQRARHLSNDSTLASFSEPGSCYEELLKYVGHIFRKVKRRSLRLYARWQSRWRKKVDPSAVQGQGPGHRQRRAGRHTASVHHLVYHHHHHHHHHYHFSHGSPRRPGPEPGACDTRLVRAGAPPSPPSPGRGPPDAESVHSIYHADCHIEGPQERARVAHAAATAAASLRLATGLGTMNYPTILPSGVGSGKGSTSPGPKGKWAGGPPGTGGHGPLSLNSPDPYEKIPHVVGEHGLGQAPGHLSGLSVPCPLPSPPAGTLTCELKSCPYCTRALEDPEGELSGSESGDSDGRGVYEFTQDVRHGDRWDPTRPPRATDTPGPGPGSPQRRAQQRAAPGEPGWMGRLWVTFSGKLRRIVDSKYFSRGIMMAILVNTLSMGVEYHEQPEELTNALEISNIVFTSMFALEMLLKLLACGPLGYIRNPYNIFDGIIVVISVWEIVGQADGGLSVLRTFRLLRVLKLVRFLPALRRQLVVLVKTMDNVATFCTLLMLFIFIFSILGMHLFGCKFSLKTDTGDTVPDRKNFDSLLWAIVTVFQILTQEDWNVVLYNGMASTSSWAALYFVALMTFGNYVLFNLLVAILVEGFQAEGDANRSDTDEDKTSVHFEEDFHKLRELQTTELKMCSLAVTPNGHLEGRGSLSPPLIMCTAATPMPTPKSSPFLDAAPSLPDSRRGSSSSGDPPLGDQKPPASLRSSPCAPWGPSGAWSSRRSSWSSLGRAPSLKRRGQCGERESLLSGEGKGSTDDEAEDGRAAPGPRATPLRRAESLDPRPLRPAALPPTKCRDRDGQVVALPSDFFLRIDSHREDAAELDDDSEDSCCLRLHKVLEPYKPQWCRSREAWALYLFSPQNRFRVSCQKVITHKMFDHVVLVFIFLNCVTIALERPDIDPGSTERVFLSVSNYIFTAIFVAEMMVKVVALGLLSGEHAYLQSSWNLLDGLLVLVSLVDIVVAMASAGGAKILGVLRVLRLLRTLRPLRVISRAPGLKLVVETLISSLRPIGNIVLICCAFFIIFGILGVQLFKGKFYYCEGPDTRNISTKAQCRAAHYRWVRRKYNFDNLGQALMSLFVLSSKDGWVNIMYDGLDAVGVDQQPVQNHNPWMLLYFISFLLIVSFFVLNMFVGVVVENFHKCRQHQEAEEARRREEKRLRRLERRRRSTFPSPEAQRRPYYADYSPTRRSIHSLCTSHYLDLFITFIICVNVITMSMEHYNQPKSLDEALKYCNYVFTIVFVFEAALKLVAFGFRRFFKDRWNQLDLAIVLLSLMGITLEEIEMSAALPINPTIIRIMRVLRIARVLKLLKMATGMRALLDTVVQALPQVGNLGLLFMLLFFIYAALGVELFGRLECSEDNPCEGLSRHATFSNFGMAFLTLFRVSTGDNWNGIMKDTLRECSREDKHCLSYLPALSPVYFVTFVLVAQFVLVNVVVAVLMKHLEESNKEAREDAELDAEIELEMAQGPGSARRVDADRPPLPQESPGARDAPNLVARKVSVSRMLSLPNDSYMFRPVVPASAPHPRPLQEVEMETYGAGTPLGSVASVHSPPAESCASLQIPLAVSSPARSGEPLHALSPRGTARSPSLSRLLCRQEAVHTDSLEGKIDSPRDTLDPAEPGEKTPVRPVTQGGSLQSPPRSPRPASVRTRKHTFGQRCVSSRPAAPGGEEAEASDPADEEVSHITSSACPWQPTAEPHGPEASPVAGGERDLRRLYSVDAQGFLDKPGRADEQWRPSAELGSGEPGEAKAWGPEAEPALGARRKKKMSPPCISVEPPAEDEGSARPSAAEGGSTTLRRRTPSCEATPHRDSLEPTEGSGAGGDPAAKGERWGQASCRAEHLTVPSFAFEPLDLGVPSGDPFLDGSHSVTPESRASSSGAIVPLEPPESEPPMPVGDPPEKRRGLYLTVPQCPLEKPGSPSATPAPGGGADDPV

Question: For `CC(CC(=O)O)c1cccc(-n2c(C(N)=O)cc3ccc(OC(F)(F)F)cc32)n1` (stereo in doubt; (-)-17), which IC50 [1] is on record?
Answer: Its IC50 is 0.014 µM.

Question: And the IC50 [2]?
Answer: Its IC50 is 0.63 µM.

Question: And the IC50 [3]?
Answer: Its IC50 is 5.5 µM.

Question: What about the IC50 [4] of the same molecule?
Answer: The IC50 was 0.042 µM.

Question: What about the logD [5] of the same molecule?
Answer: Its logD is 0.9.

Question: What about the CL free [6] of the same molecule?
Answer: Its CL free is 306 mL/min/kg.

Question: What about the IC50 [7] of the same molecule?
Answer: The IC50 was 0.075 µM.

Question: And the solubility at 24 h [8]?
Answer: Its solubility at 24 h is 100 µM (≈ 40.7 µg/mL).

Question: What about the Papp [9] of the same molecule?
Answer: The Papp was 5.8 ×10⁻⁶ cm/s.

Question: And the IC50 [10]?
Answer: Its IC50 is greater than 33 µM.

Question: What about the half-life [11] of the same molecule?
Answer: The half-life was greater than 2.88 h.

Question: What about the IC50 [12] of the same molecule?
Answer: Its IC50 is greater than 33 µM.

Question: What about the IC50 [13] of the same molecule?
Answer: Its IC50 is greater than 33 µM.

Question: And the IC50 [14]?
Answer: The IC50 was greater than 33 µM.

Question: What about the IC50 [15] of the same molecule?
Answer: Its IC50 is greater than 33 µM.

Question: What about the IC50 [16] of the same molecule?
Answer: Its IC50 is greater than 33 µM.

Question: What about the Drug metabolism [17] of the same molecule?
Answer: Its Drug metabolism is “Metabolite_Notdetected”.

Question: What about the IC50 [18] of the same molecule?
Answer: The IC50 was greater than 20 µM.

Question: And the IC50 [19]?
Answer: The IC50 was greater than 20 µM.

Question: And the IC50 [20]?
Answer: The IC50 was greater than 20 µM.

Question: And the IC50 [21]?
Answer: Its IC50 is greater than 20 µM.

Question: What about the IC50 [22] of the same molecule?
Answer: Its IC50 is greater than 20 µM.

Question: And the IC50 [23]?
Answer: The IC50 was greater than 20 µM.

Question: What about the fraction unbound [24] of the same molecule?
Answer: The fraction unbound was 0.05.

Question: What about the CL free [25] of the same molecule?
Answer: The CL free was 306 mL/min/kg.

Question: And the bioavailability [26]?
Answer: Its bioavailability is 95%.

Question: And the Vd [27]?
Answer: The Vd was 0.52 L/kg.

Question: What about the Activity [28] of the same molecule?
Answer: The Activity was “Non-Toxic”.

Question: What about the Activity [29] of the same molecule?
Answer: The Activity was “Non-Toxic”.

Question: What about the Activity [30] of the same molecule?
Answer: Its Activity is “Non-Toxic”.

Question: And the Activity [31]?
Answer: Its Activity is “Non-Toxic”.

Question: And the Activity [32]?
Answer: The Activity was “Non-Toxic”.

Question: What about the Activity [33] of the same molecule?
Answer: Its Activity is “Non-Toxic”.

Question: What about the Activity [34] of the same molecule?
Answer: Its Activity is “Non-Toxic”.

Question: And the Activity [35]?
Answer: Its Activity is “Non-Toxic”.

Question: What about the Activity [36] of the same molecule?
Answer: Its Activity is “Non-Toxic”.

Question: And the Activity [37]?
Answer: Its Activity is “Non-Toxic”.

Question: What about the Ratio [38] of the same molecule?
Answer: The Ratio was greater than 7.

Question: And the Ratio [39]?
Answer: The Ratio was greater than 7.

Question: And the Ratio [40]?
Answer: The Ratio was greater than 7.

Question: And the Ratio [41]?
Answer: The Ratio was greater than 7.
